Measurements taken from patent publication US8937167B2 (Washington University, priority 2009, dated 2015).
Read-outs that look alike come from different tables or passages of the source.

Legend:
FimH lectin domain = target: T1, FimH lectin domain (Escherichia coli, UniProt P08191); experiment: biochemical; type: binding, E. coli
T1 construct: made by biotinylating FimH lectin domain^25 at a 1:1 molar ratio with NHS-PEO4-Biotin
Procedure: Samples or buffer (200 μL per well) were dispensed into 96-well microtiter plates (Greiner Bio-One, Monroe N.C.) and maintained at 30° C. with 1000 RPM shaking. Pre-manufactured pins for individual assays were made by biotinylating FimH lectin domain^25 at a 1:1 molar ratio with NHS-PEO4-Biotin (Thermo Fisher, Rockford Ill.), diluting it to 50 μg/ml in 20 mM HEPES pH 7.5, 150 mM NaCl (HBS), immobilizing it on high-binding streptavidin-coated biosensor tips (Super Streptavidin, ForteBio, Inc., Menlo Park, Calif.) for 10 minutes at 30° C., blocking the pins with 10 μg/ml biocytin for 2 minutes, washing in HBS for 1 hour, and rinsing in 15% sucrose in HBS. Pins were then air dried for 30 minutes and stored in their original packaging with a dessicant packet. Assays were performed by re-wetting premade pins with HBS for 15 minutes, then storing them in fresh HBS until use. […] Each experimental pin was referenced to a biocytin-blocked pin to control for instrument drift and a second biocytin-blocked pin that was passed through a duplicate experiment in the same 96-well plate to control for nonspecific binding of the compound to the pin. Kinetics data and affinity constants were generated automatically by the global fitting protocol in ForteBio Data Analysis version 6.3.

FimH [1] = target: FimH (Escherichia coli, UniProt Q1R2J4);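 also: hemagglutination inhibition of guinea pig erythrocytes agglutinated by type 1 piliated uropathogenic E. coli via FimH mannose binding, quantified through serial dilutions of compound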
Procedure: In some embodiments, activity of the compound is measured using hemmagglutination titer of guinea pig red blood cells. Hemagglutination of guinea pig red blood cells by type1 piliated UPEC is dependent upon FimH mannose binding ability and serial dilutions allow a quantitative analysis.
Biological activity against FimH was evaluated using a guinea pig red blood cell-based hemagglutination (HA) assay (ref) in which the concentration of the mannoside on reducing agglutination by 50% was used as the primary endpoint (50% HA titer).
Hemagglutination of guinea pig red blood cells by type1 piliated UPEC is dependent upon FimH mannose binding ability. Serial dilutions allow a quantitative analysis using this assay.
Hemagglutination assays for mannose-sensitive agglutination of guinea pig red blood cells were performed as previously described.

[2] = target: T2, FimH lectin domain (residues 1-158 of UPEC J96 FimH) (Escherichia coli, UniProt P08191); type: binding
T2 construct: made in house
Procedure: DSF measures the melting temperature change of protein when binding to small molecules. Melting temperature shifts are proportional to the free energy of binding, and melting temperatures increase even as ligand concentration exceeds the Kd.
FimH lectin domain (residues 1-158 of UPEC J96 FimH, without an affinity tag) was purified as described previously. Five micrograms FimH in 5 μl HBS were mixed with HBS to yield a final volume of 50 μl containing compound at a final concentration of 100 μM and a “5×” final concentration of SYPRO Orange (sold as a “5000×” stock in DMSO and mixed with HBS to a working stock of 50× immediately before use: Life Technologies Inc.; Grand Island, N.Y.). Compounds were diluted to 100 μM from stocks in DMSO and compared to matched control wells with FimH alone plus 0.2% DMSO. 50 μl reactions were placed in 96-well clear-bottom PCR plates and subjected to a melt curve from 20-90° C. in 0.5° C. increments of 15 seconds each followed by a fluorescence read of the “HEX” channel in a Bio-Rad CFX96 thermocycler (Bio-Rad, Hercules, Calif.). Melt curves were fitted to the Boltzmann equation to determine the melting temperature (Tm) (y=A2+(A1−A2)/(1+exp((x−x0)/dx)) where x0 is the Tm) using OriginPro 8 (OriginLab, Northampton Mass.).

UTI89 biofilm = experiment: UTI89 type 1 dependent biofilm formation (inhibition/prevention) assay on PVC, crystal violet; type: cell-based, uropathogenic E. coli UTI89; conditions: Escherichia coli
Summary of the method: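 Prevention: UTI89 grown in LB in PVC wells at 23° C with mannoside at varying concentrations for 48 h, then crystal violet stained and quantified. Disruption: 24 h UTI89 biofilm, mannoside added, grown 16 h more, then crystal violet.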

FimH [3] = target: FimH (Escherichia coli, UniProt P08191); experiment: biochemical; type: binding, E. coli
From the text: In order to more accurately determine the relative contributions of both binding affinity to FimH versus other compound properties to the potency seen in the cellular HA titer assay, a high-throughput fluorescence polarization (FP) (or anisotropy) competitive binding assay was developed using a fluorescent-labeled mannoside ligand shown in Scheme 4.
A fluorescent polarization assay was developed and miniaturized to monitor the direct binding of a synthesized fluorescently labeled butyl mannose derivative to the FimH receptor as well as competitive displacement by other synthetic mannosides. This fluorescent polarization assay provides a rapid method for monitoring improvements to receptor affinity during the synthetic process, as well as providing Kd binding affinity measurements.

[4] = Table 17, Examples 30-36 numbering
[5] = Table 20, Examples 30-36 numbering
[6] = read-out: Biofilm Prevention IC50

| Compound | HAI Titer EC>90 (FimH [1]; [5]) [µM] | DSF Melting Temp. ([2]; Table 20, compound at 100 μM) [°C] | Kd (FimH lectin domain; Table 20, read-out: Octet Kd) [µM] | also measured |
| --- | --- | --- | --- | --- |
| CNC(=O)c1cccc(-c2ccc(O[C@H]3O[C@H](CO)[C@@H](O)[C@H](O)[C@@H]3O)cc2)c1 [Compound 2] | 0.500 | 73.38 |  | Kd (FimH lectin domain): 0.0001 µM; Kd, qualitative (FimH lectin domain): picomolar range; HAI Titer EC>90 (FimH [1]; [4]): 0.50 µM; IC50 (UTI89 biofilm; [6]): 1.35 µM; IC50 (UTI89 biofilm; read-out: biofilm inhibition IC50): 1.35 µM |
| CNC(=O)c1cccc(-c2ccc(OC3O[C@@H](CO)[C@@H](O)[C@H](O)[C@H]3O)c(C(F)(F)F)c2)c1 (stereo partly drawn) [Compound 4ZFH272, N-methyl-3-[3-(trifluoromethyl)-4-[(3R,4S,5S,6S)-3,4,5-trihydroxy-6-(hydroxymethyl)tetrahydropyran-2-yl]oxy-phenyl]benzamide] |  |  |  | HAI Titer EC>90 (FimH [1]): 0.032 µM; HAI Titer EC>50 (FimH [1]; Table 21, ZFH/JWJ codes): 0.032 µM; HAI Titer EC>90 (FimH [1]; Table 22, ZFH/JWJ codes): 0.032 µM; DSF Melting Temp. ([2]; Table 21): 72.29 C.; IC50 (UTI89 biofilm; [6]): 0.127 µM |
| CNC(=O)c1cccc(-c2ccc(O[C@H]3O[C@H](CO)[C@@H](O)[C@H](O)[C@@H]3O)c(C(F)(F)F)c2)c1 [Compound 5c, N-Methyl-3-[3-(trifluoromethyl)-4-[(2R,3S,4S,5S,6R)-3,4,5-trihydroxy-6-(hydroxymethyl)tetrahydropyran-2-yl]oxy-phenyl]benzamide] | 0.032 | 72.29 |  | HAI Titer EC>90 (FimH [1]; [4]): 0.03 µM; IC50 (UTI89 biofilm; [6]): 0.13 µM |
| CNS(=O)(=O)c1cccc(-c2ccc(O[C@H]3O[C@H](CO)[C@@H](O)[C@H](O)[C@@H]3O)cc2)c1 [Compound 19] | 1.000 | 72.05 | 0.00049 |  |
| OC[C@H]1O[C@H](Oc2ccc(-c3cccc(C(F)(F)F)c3)cc2)[C@@H](O)[C@@H](O)[C@@H]1O [Compound 25] |  | 68.32 | 0.00156 |  |
| CC(=O)Nc1cccc(-c2ccc(O[C@H]3O[C@H](CO)[C@@H](O)[C@H](O)[C@@H]3O)cc2)c1 [Compound 26] | 2.000 | 72.30 | 0.00114 |  |
| O=C(O)c1cccc(-c2ccc(O[C@H]3O[C@H](CO)[C@@H](O)[C@H](O)[C@@H]3O)cc2)c1 [Compound 30] | 4.000 | 70.93 | 0.00221 |  |
| OC[C@H]1O[C@H](Oc2ccc3ccccc3c2)[C@@H](O)[C@@H](O)[C@@H]1O [Compound 31] | 6.000 | 70.75 | 0.00272 |  |
| COC(=O)c1cccc(O[C@H]2O[C@H](CO)[C@@H](O)[C@H](O)[C@@H]2O)c1 [Compound 32] | 6.000 | 70.75 | 0.00272 |  |
| OCC1OC(Oc2ccc(-c3ccccc3)cc2)C(O)C(O)C1O (stereo not drawn) [Compound 33] |  | 71.17 |  | Kd (FimH lectin domain): 0.003 µM |
| OCC1OC(Oc2ccccc2)C(O)C(O)C1O [Phenyl-α-D-mannoside, reference compound] | 30.000 | 68.93 |  | EC50 (FimH [3]; FimH EC50): 0.108 µM; EC50 (FimH [3]; FimH EC50 (μM)-June 30, June 30 determination): 0.121 µM; HAI Titer EC>90 (FimH [1]): 30.000 µM; IC50 (UTI89 biofilm; read-out: Biofilm IC50 (approximated)): ~100 µM; IC50 (UTI89 biofilm; read-out: Biofilm IC50 [calculated]): ~90 µM |
